One test relates to YF. In words: microbe, parasite or virus in culture. In kind it is cell-based. Particulars: MK2, read-out: Concentration required to give 80% plaque reduction.
Another test has as its system VEE. In words: microbe, parasite or virus in culture. Particulars: Vero; read-out: Concentration required to give 80% plaque reduction. In kind it is cell-based.
Another test concerns RVFV. In words: microbe, parasite or virus in culture. The format is cell-based. The note with it: Rift Valley fever virus, SW13, read-out: Concentration required to give 80% plaque reduction.
The subject of another test is DEN-2. In words: microbe, parasite or virus in culture. The note with it: SW13, read-out: Concentration required to give 80% plaque reduction.
The next test has as its system PICH. In words: microbe, parasite or virus in culture. The note with it: Vero, read-out: Concentration required to give 80% plaque reduction.
A further test concerns Trypanosoma rhodesiense. In words: In vitro antitrypanosomal screening, semi-automated microtest system. In kind it is cell-based.
The next test deals with Plasmodium falciparum. Kind of test: In vitro antimalarial screening, semi-automated microdilution technique. The format is cell-based. Particulars: column head in nanograms/ml, footnote in μg/ml, read-out: ED50 (out-of-range entries). From the text:
Desjardins, R. E.; Canfield, C. J.; Haynes, J. D.; and Chulay, J. D.: Quantitative Assessment of Antimalarial Activity In Vitro by A Semi-automated Microdilution Technique. Antimicrob. Ag. & Chemother., 16:710-718, 1979.
(In general: Broth dilution looks for growth in wells or tubes with falling amounts of substance.)

The next test deals with malaria. The note with it: A Survey of Antimalarial Drugs, 1941-1945; cited from earlier work.
Setting [1] is: 3H-Thymidine, read-out: ED50, 3H-Thymidine (out-of-range entries).

In brackets after ≈: the same amount, converted by molar mass. Like-named read-outs stand apart in the source and are kept apart here.

`NC(=O)c1ncn([C@@H]2O[C@H](CO)[C@@H](O)[C@H]2O)n1` [Ribavirin]: the EC80 came to 50 µg/mL (≈ 205 µM) with YF; 100 µg/mL (≈ 409 µM) in the test on VEE; 25 µg/mL (≈ 102 µM) in the test with RVFV; 100 µg/mL (≈ 409 µM) in the test with DEN-2; 100 µg/mL (≈ 409 µM) in the test on PICH.
Regarding `Nc1ccc(S(=O)(=O)Nc2ncccn2)cc1` [aluminum sulfadiazine], the IC50 in the test with Trypanosoma rhodesiense (setting [1]) was greater than 12.5 µg/mL.
Regarding `Nc1cccc(S(=O)(=O)Nc2ncc(Cl)cn2)c1` [metachloridine, 5-chloro-2-metanilamidopyrimidine], the IC50 with Trypanosoma rhodesiense (setting [1]) was greater than 12.5 µg/mL; in the test on Trypanosoma rhodesiense (14C-Leucine, read-out: ED50, 14C-Leucine (out-of-range entries)), greater than 12.5 µg/mL; in the test on Plasmodium falciparum, greater than 12.5 µg/mL. The “antimalarial activity in screening tests” value in the test on malaria is “sufficiently active in screening tests for antimalarial effects”.
Regarding `Nc1ccc(S(=O)(=O)Nc2ncccn2)cc1` [sulfadiazine, 2-sulfanilaminidopyrimidine], the IC50 with Plasmodium falciparum was greater than 12.5 µg/mL.
With `COc1cnc(NS(=O)(=O)c2ccc(N)cc2)nc1` [sulfameter], the IC50 with Trypanosoma rhodesiense (setting [1]) is greater than 12.5 µg/mL.

The values above are taken from patent US4415565A, “Silver metachloridine in treatment of infections” (The United States of America as represented by the …, priority 1981, dated 1983).
